Test results from US11224234B2, “Functional chocolate” (IMMD SP. Z.O.O., priority 2016, dated 2022).

Assay: Pharmacokinetics of trans-Resveratrol in human serum, crossover clinical study
Type: in vivo
Conditions: single ingestion
Description: This was a crossover clinical study on 6 volunteers of 35-65 years old, 3 women and 3 men. It was a multi-arm trial with one-week interval between each arm. Prior to every experiment volunteers were asked not to consume food, which may contain fruit, vegetable or grain polyphenols and tomato-based products. In the morning of the experiment volunteers were asked to abstain from any food and drink only water. The serum of the vein blood was analysed. […] Firstly, a sample was collected before ingesting of a product, then every hour for 4 hours after ingestion. To assess the pharmacokinetics (PK) of t-RSV of our dark and milk chocolate with embedded bilberry and aronia extracts, we undertook a crossover clinical study with the same group of volunteers. On top of these we added into this crossover study a few more groups with Nutella spread where chocolate is only a small ingredient. The design of the study and the sample collection was the same as in the glucose postprandial study described above.

t-RSV AUC 0-4 hours: 105 to 380 ng/mL
t-RSV Max: 100 to 207 ng/mL
Structure (SMILES): Oc1ccc(/C=C/c2cc(O)cc(O)c2)cc1 [t-RSV capsule, trans-Resveratrol]
